The text below walks through data of patent US10287276B2, “Heteroaryl-1,2,4-triazole and heteroaryl-tetrazole compounds for controlling ectoparasites” (Elanco Tiergesundheit AG, priority 2016, dated 2019).

The subject of assay [1] is Ctenocephalides Felis (Cat Flea). Nature of the assay: Activity in vitro against Ctenocephalides felis (cat flea), Assay A. The settings on record: Ctenocephalides felis; at 100 ppm; adult fleas fed on treated blood for 24 h; dead fleas counted; read-out: efficacy (EC80). As to the method:
Activity In Vitro Against Ctenocephalides Felis (Cat Flea)—Assay A
A mixed adult population of fleas is placed in a suitably formatted 96-well plate allowing fleas to access and feed on treated blood via an artificial feeding system. Fleas are fed on treated blood for 24 h, after which the compound effect is recorded. Insecticidal activity is determined on the basis of the number of dead fleas recovered from the feeding system.

Assay [2] has as its system Lucilla Cuprina (Australian sheep blowfly). The assay can be described thus: Activity in vitro against Lucilla cuprina (Australian sheep blowfly), Assay A. Particulars: Lucilia cuprina, 96 h; at 32 ppm; eggs on agar-based medium, 4 days at 28° C. and 60% relative humidity; read-out: efficacy (EC80). How it is done: Activity in vitro against Lucilla Cuprina (Australian sheep blowfly)—Assay A
Freshly laid blowfly eggs are used to seed a suitably formatted microplate containing the test substances to be evaluated for antiparasitic activity. Each compound is tested by serial dilution in order to determine its minimum efficacy dose. The test compounds are embedded in an agar-based nutritive medium allowing the full development of the eggs into 3rd instar larvae. The incubation lasts for 4 days at 28° C. and 60% relative humidity. Egg-hatching and ensuing larval development are also recorded to identify a possible growth-regulating activity.

The test system of assay [3] is Engorged Female Rhipicephalus microplus (Cattle Tick). Nature of the assay: Activity in vitro against engorged female Rhipicephalus microplus (cattle tick), contact test. The settings on record: 672 h, organophosphorous-resistant Ultimo strain, evaluation 28 days later on mortality, oviposition and hatched larvae, read-out: efficacy (EC80). How it is done: Activity In Vitro Against Engorged Female Rhipicephalus microplus (Cattle Tick)
A contact test is performed by pre-coating 6-well microplates with serial dilution of the compound to be evaluated for anti-parasitic activity. 10 engorged female ticks of the organophosphorous-resistant Ultimo strain are distributed to each well in triplicates. Plates are then incubated at 28° C. and 80% relative humidity. Evaluation takes place 28 days later based on mortality, oviposition and hatched larvae. […] Activity In Vivo Against Rhipicephalus sanguineus Nymphs on Mongolian Gerbils (Meriones unguiculatus) (Spray Application)

Assay [4] concerns Rhipicephalus sanguineus Nymphs. The assay can be described thus: Activity in vivo against Rhipicephalus sanguineus nymphs on Mongolian gerbils. Particulars: topical, 0 h, pour on application day 0, tick number reduction vs placebo, Abbott's formula, read-out: efficacy (EC90). As to the method: On day 0, gerbils are treated with the test compound at a given dose by pour on application. On day +1 (+2), the animals are infested with nymphs of R. sanguineus. Ticks are left on the animals until full repletion. Seven days after infestation nymphs dropped off fully engorged are collected and counted. They are kept until molting to also evaluate growth regulating activity of the test compound. Efficacy in killing (and growth regulating) is expressed as a tick number (and molted tick number) reduction in comparison with a placebo treated group, using the Abbott's formula:
n=number of live ticks. T=treated group. Co=control/placebo group.

Assay [5] deals with Rhipicephalus sanguineus (Dog Tick). Nature of the assay: Activity in vitro against Rhipicephalus sanguineus (dog tick), Assay A, contact test. Particulars: Rhipicephalus sanguineus, 168 h, at 100 ppm, adult ticks, 28° C. and 80% relative humidity for 7 days, read-out: efficacy (EC80). As to the method:
Activity In Vitro Against Rhipicephalus sanguineus (Dog Tick)—Assay A
A contact test is performed by pre-coating microplate with serial dilution of compound allowing evaluating anti-parasitic activity by contact against ticks. A mixed adult tick population is then distributed to each well of the plate and incubated at 28° C. and 80% relative humidity for 7 days, during which the effect of the test compound is monitored. Acaricidal activity is confirmed if and when adult ticks are dead.

Assay [6] deals with Lice (Polyplax serrata). Nature of the assay: Activity in vivo against lice (Polyplax serrata) in mice (topical). The settings on record: pour-on application, live lice on day +4 and +14, Henderson & Tilton formula, read-out: efficacy (EC90). How it is done:
Activity In Vivo Against Lice (Polyplax serrata) in Mice (Topical) Mice naturally infected with P. serrata are treated with the formulated test compound on day 0 by pour-on application. On day +4 and +14, efficacy is evaluated by counting the number of live lice under a binocular. Efficacy at the two time points is expressed as a comparison of lice numbers counted on the same mouse before treatment, using the Henderson & Tilton formula, taking also into account lice numbers found on mice treated with the empty formulation (placebo group): [formula] n=number of lice, T=treated group, Co=control/placebo group.

The subject of assay [7] is Ctenocephalides Felis (Cat Flea). The assay can be described thus: Activity in vitro against Ctenocephalides felis (cat flea), Assay B. The settings on record: Ctenocephalides felis; at 10 ppm in bovine blood; % mortality at 48 hours post infestation; read-out: efficacy (EC50). As to the method:
Activity In Vitro Against Ctenocephalides Felis (Cat Flea)—Assay B
Test compounds are added to organic bovine blood contained in an artificial feeding container. Compounds with known insecticidal activity are included to serve as positive controls. Newly emerged unfed adult fleas from a laboratory colony are aspirated into each vial. The test cages are maintained using the artificial feeding apparatus to allow ingestion of compound. Fleas are evaluated for % mortality at 48 hours post infestation. Fleas showing normal movement and/or jumping ability are considered viable and those showing no movement are scored as dead.

With `CCCN(C(=O)c1cc(Cl)cc(C(F)(F)F)c1)C(C)c1ncnn1-c1ccccn1` (stereo not drawn) [Example 8, 3-Chloro-N-propyl-N-[1-[2-(2-pyridyl)-1,2,4-triazol-3-yl]ethyl]-5-(trifluoromethyl)benzamide], the pest or weed control at 100 ppm in assay [1] is greater than 80%. Further, the pest or weed control at 32 ppm in assay [2] is greater than 80%. In assay [3], the pest or weed control at 200 ppm was greater than 80%. For the same compound, in assay [4], the inhibition in vivo at 32 mg/kg is greater than 90%.

For the compound `CC(c1ncnn1-c1ccccn1)N(CC1CC1)C(=O)c1cncc(C(F)(F)F)c1` (stereo not drawn) [Example 9, N-(Cyclopropylmethyl)-N-[1-[2-(2-pyridyl)-1,2,4-triazol-3-yl]ethyl]-5-(trifluoromethyl)pyridine-3-carboxamide], the pest or weed control at 100 ppm in assay [5] and in assay [1] was greater than 80% each time. Further, in assay [2], the pest or weed control at 32 ppm was greater than 80%. Further, the pest or weed control at 200 ppm in assay [3] is greater than 80%. Besides, in assay [4], the inhibition in vivo at 32 mg/kg is greater than 90%.

Take `CC(c1ncnn1-c1ccccn1)N(CC#N)C(=O)c1cc(C(F)(F)F)cc(C(F)(F)F)c1` (stereo not drawn) [Example 14, N-(Cyanomethyl)-N-[1-[2-(2-pyridyl)-1,2,4-triazol-3-yl]ethyl]-3,5-bis(trifluoromethyl)benzamide]: the pest or weed control at 100 ppm in assay [5] and in assay [1] was greater than 80% throughout. Besides, in assay [2], the pest or weed control at 32 ppm was greater than 80%. For the same compound, in assay [3], the pest or weed control at 200 ppm was greater than 80%. Also, in assay [4], the inhibition in vivo at 32 mg/kg was greater than 90%.

Consider `C#CCN(C(=O)c1cc(C(F)(F)F)cc(C(F)(F)F)c1)C(C)c1ncnn1-c1ccccn1` (stereo not drawn) [Example 15], for which the pest or weed control at 100 ppm in assay [5] and in assay [1] was greater than 80% throughout. Moreover, in assay [6], the inhibition in vivo at 32 mg/kg is greater than 90%. The pest or weed control at 32 ppm in assay [2] is greater than 80%. Moreover, in assay [3], the pest or weed control at 200 ppm was greater than 80%.

In the case of `CC(c1ncnn1-c1ncccn1)N(CCF)C(=O)c1cc(Cl)cc(C(F)(F)F)c1` (stereo not drawn) [Example 23, 3-Chloro-N-(2-fluoroethyl)-N-[1-(2-pyrimidin-2-yl-1,2,4-triazol-3-yl)ethyl]-5-(trifluoromethyl)benzamide], the pest or weed control at 32 ppm in assay [2] is greater than 80%. In addition, the pest or weed control at 200 ppm in assay [3] was greater than 80%. In addition, in assay [4], the inhibition in vivo at 32 mg/kg is greater than 90%.

On to `CC(c1ncnn1-c1ncccn1)N(CCCF)C(=O)c1cc(Cl)cc(C(F)(F)F)c1` (stereo not drawn) [Example 24, 3-Chloro-N-(3-fluoropropyl)-N-[1-(2-pyrimidin-2-yl-1,2,4-triazol-3-yl)ethyl]-5-(trifluoromethyl)benzamide], for which the pest or weed control at 100 ppm in assay [5] and in assay [1] was greater than 80% in each case. Also, the inhibition in vivo at 32 mg/kg in assay [6] is greater than 90%. Further, the pest or weed control at 32 ppm in assay [2] was greater than 80%. Moreover, in assay [3], the pest or weed control at 200 ppm was greater than 80%.

For the compound `CC(c1ncnn1-c1ncccn1)N(CCCF)C(=O)c1cc(Cl)cc(OC(F)(F)F)c1` (stereo not drawn) [Example 25, 3-Chloro-N-(3-fluoropropyl)-N-[1-(2-pyrimidin-2-yl-1,2,4-triazol-3-yl)ethyl]-5-(trifluoromethoxy)benzamide], in assay [6], the inhibition in vivo at 32 mg/kg is greater than 90%. The pest or weed control at 100 ppm in assay [1] is greater than 80%. In assay [2], the pest or weed control at 32 ppm was greater than 80%. Further, in assay [3], the pest or weed control at 200 ppm is greater than 80%.

Turning to `CC(c1ncnn1-c1ncccn1)N(CCC(F)(F)F)C(=O)c1cc(Cl)cc(C(F)(F)F)c1` (stereo not drawn) [Example 26, 3-Chloro-N-[1-(2-pyrimidin-2-yl-1,2,4-triazol-3-yl)ethyl]-5-(trifluoromethyl)-N-(3,3,3-trifluoropropyl)benzamide], the pest or weed control at 100 ppm in assay [5] and in assay [1] was greater than 80% in each case. Further, the pest or weed control at 32 ppm in assay [2] is greater than 80%. For the same compound, the inhibition in vivo at 32 mg/kg in assay [4] is greater than 90%.

Regarding `CC(c1ncnn1-c1ncccn1)N(CCC(F)(F)F)C(=O)c1cncc(C(F)(F)F)c1` (stereo not drawn) [Example 29, N-[1-(2-Pyrimidin-2-yl-1,2,4-triazol-3-yl)ethyl]-5-(trifluoromethyl)-N-(3,3,3-trifluoropropyl)pyridine-3-carboxamide], the pest or weed control at 100 ppm in assay [5] and in assay [1] was greater than 80% in each case. The pest or weed control at 32 ppm in assay [2] was greater than 80%. In assay [4], the inhibition in vivo at 32 mg/kg was greater than 90%.

Regarding `CC(c1ncnn1-c1ncccn1)N(CCCF)C(=O)c1cncc(C(F)(F)F)c1` (stereo not drawn) [Example 31, N-(3-Fluoropropyl)-N-[1-(2-pyrimidin-2-yl-1,2,4-triazol-3-yl)ethyl]-5-(trifluoromethyl)pyridine-3-carboxamide], the pest or weed control at 100 ppm in assay [5] and in assay [1] was greater than 80% in each case. The pest or weed control at 32 ppm in assay [2] is greater than 80%. Besides, in assay [4], the inhibition in vivo at 32 mg/kg was greater than 90%.

Turning to `C#CCN(C(=O)c1cc(Cl)cc(OC(F)(F)F)c1)C(C)c1ncnn1-c1ncccn1` (stereo not drawn) [Example 36, 3-Chloro-N-prop-2-ynyl-N-[1-(2-pyrimidin-2-yl-1,2,4-triazol-3-yl)ethyl]-5-(trifluoromethoxy)-benzamide], the pest or weed control at 100 ppm in assay [5] and in assay [1] was greater than 80% throughout. For the same compound, in assay [6], the inhibition in vivo at 32 mg/kg was greater than 90%. Further, the pest or weed control at 32 ppm in assay [2] is greater than 80%. In addition, the pest or weed control at 200 ppm in assay [3] was greater than 80%.

As for `CC(c1ncnn1-c1ncccn1)N(CC1CC1)C(=O)c1cccc(C#N)c1` (stereo not drawn) [Example 38, 3-Cyano-N-(cyclopropylmethyl)-N-[1-(2-pyrimidin-2-yl-1,2,4-triazol-3-yl)ethyl]benzamide], the pest or weed control at 100 ppm in assay [5] and in assay [1] was greater than 80% each time. Also, the inhibition in vivo at 32 mg/kg in assay [6] was greater than 90%. Further, the pest or weed control at 32 ppm in assay [2] is greater than 80%. Besides, the pest or weed control at 200 ppm in assay [3] was greater than 80%.

For the compound `C[C@@H](c1ncnn1-c1ccccn1)N(CC1CC1)C(=O)c1cc(C(F)(F)F)cc(C(F)(F)F)c1` [Example 44, N-(Cyclopropylmethyl)-N-[(1S)-1-[2-(2-pyridyl)-1,2,4-triazol-3-yl]ethyl]-3,5-bis(trifluoromethyl)benzamide], the pest or weed control at 100 ppm in assay [1] was greater than 80%. Moreover, the pest or weed control at 32 ppm in assay [2] was greater than 80%. In assay [3], the pest or weed control at 200 ppm was greater than 80%. In addition, in assay [4], the inhibition in vivo at 32 mg/kg is greater than 90%.

Regarding `C[C@@H](c1ncnn1-c1ncccn1)N(CC1CC1)C(=O)c1cncc(C(F)(F)F)c1` [Example 45, N-(Cyclopropylmethyl)-N-[(1S)-1-(2-pyrimidin-2-yl-1,2,4-triazol-3-yl)ethyl]-5-(trifluoromethyl)pyridine-3-carboxamide], the pest or weed control at 100 ppm in assay [1] is greater than 80%. Also, the pest or weed control at 32 ppm in assay [2] was greater than 80%. In addition, the pest or weed control at 200 ppm in assay [3] is greater than 80%. Moreover, the inhibition in vivo at 32 mg/kg in assay [4] was greater than 90%.

For the compound `CC(NC(=O)c1cccc(C#N)c1)c1ncnn1-c1ncccn1` (stereo not drawn) [Example 52, 3-Cyano-N-[1-(2-pyrimidin-2-yl-1,2,4-triazol-3-yl)ethyl]benzamide], in assay [7], the pest or weed control at 10 ppm was greater than 50%.

For the compound `CC(c1ncnn1-c1ncccn1)N(C)C(=O)c1cccc(C(N)=S)c1` (stereo not drawn) [Example 71, 3-Carbamothioyl-N-methyl-N-[1-(2-pyrimidin-2-yl-1,2,4-triazol-3-yl)ethyl]benzamide], in assay [7], the pest or weed control at 10 ppm was greater than 50%.
